Assay type in all cases: biochemical
For one assay, the target named is T1, AKT (Homo sapiens, UniProt Q9Y243).
T1 construct: Kinases are expressed as either kinase domains or full length constructs; made in house
In words: Kinase inhibition assay (33P transfer), AKT. The following applies: Table 2, kinase inhibition class; read-out: AKT3-1. An outline of the steps:
(§1)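 33P-ATP transfer to coated synthetic polymer substrates; acid wash (0.5% H3PO4), scintillant, liquid scintillation count. Enzymes: His- or GST-fusion kinases from E. coli or High Five insect cells.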

The target in a further assay is T2, Flt-1 (Homo sapiens, UniProt P17948).
T2 construct: Kinases are expressed as either kinase domains or full length constructs; made in house
T2 sequence (P17948 27-1338, species assumed): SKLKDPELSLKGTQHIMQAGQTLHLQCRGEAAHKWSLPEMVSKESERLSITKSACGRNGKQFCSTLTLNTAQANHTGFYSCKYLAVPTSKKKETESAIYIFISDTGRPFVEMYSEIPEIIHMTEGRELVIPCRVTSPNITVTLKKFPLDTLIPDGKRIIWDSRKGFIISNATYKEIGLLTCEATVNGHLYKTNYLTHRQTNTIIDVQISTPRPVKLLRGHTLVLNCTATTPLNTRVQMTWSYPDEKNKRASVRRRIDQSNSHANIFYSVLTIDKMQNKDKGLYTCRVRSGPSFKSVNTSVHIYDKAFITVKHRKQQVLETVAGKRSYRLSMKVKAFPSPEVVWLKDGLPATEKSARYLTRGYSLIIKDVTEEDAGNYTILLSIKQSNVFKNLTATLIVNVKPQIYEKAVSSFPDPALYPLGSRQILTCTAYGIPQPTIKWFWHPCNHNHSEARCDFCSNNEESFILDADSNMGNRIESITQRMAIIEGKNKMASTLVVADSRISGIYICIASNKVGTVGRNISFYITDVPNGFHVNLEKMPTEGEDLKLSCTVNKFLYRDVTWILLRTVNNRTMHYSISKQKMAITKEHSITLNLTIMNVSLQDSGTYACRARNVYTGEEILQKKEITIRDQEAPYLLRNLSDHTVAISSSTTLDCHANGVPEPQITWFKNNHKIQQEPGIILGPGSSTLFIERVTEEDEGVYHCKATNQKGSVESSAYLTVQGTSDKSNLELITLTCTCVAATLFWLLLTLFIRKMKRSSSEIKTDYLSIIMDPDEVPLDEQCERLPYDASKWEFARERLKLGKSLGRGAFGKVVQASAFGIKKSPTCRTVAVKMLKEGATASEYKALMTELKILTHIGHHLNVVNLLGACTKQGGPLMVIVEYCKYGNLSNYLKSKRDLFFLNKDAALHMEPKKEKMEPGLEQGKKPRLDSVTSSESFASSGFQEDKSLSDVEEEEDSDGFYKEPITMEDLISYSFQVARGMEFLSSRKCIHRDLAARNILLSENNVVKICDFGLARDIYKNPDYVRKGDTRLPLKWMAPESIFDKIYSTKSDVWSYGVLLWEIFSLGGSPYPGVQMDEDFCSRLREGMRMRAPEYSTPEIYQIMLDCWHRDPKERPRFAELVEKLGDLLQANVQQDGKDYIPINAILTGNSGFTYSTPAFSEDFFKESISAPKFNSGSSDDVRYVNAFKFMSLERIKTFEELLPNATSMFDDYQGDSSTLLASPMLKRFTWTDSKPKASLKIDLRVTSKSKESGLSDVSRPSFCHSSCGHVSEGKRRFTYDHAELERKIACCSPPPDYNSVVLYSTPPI
In words: Kinase inhibition assay (33P transfer), Flt-1. An outline of the steps: (§2)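 Each enzyme, purified to near homogeneity by affinity chromatography, was incubated with ATP carrying 33P and a substrate polymer fixed to the plate. Unbound label was removed with dilute phosphoric acid (0.5%) before adding scintillant and counting. Potency is given as the compound level cutting label uptake by 50%.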

The next assay addresses T3, FGFR1 (Homo sapiens, UniProt P11362).
T3 construct: Kinases are expressed as either kinase domains or full length constructs; made in house
In words: Kinase inhibition assay (33P transfer), FGFR1. The conditions noted are these: read-out: FGFR1-1.

A further assay addresses T4, ErbB4 (Homo sapiens, UniProt Q15303).
T4 construct: Kinases are expressed as either kinase domains or full length constructs; made in house
As to the kind of experiment: Kinase inhibition assay (33P transfer), ErbB4. The following applies: read-out: ErbB4-1.

In another assay the target is T5, Kdr (Homo sapiens, UniProt P35968).
T5 construct: Kinases are expressed as either kinase domains or full length constructs; made in house
T5 sequence (P35968 20-1356, species assumed): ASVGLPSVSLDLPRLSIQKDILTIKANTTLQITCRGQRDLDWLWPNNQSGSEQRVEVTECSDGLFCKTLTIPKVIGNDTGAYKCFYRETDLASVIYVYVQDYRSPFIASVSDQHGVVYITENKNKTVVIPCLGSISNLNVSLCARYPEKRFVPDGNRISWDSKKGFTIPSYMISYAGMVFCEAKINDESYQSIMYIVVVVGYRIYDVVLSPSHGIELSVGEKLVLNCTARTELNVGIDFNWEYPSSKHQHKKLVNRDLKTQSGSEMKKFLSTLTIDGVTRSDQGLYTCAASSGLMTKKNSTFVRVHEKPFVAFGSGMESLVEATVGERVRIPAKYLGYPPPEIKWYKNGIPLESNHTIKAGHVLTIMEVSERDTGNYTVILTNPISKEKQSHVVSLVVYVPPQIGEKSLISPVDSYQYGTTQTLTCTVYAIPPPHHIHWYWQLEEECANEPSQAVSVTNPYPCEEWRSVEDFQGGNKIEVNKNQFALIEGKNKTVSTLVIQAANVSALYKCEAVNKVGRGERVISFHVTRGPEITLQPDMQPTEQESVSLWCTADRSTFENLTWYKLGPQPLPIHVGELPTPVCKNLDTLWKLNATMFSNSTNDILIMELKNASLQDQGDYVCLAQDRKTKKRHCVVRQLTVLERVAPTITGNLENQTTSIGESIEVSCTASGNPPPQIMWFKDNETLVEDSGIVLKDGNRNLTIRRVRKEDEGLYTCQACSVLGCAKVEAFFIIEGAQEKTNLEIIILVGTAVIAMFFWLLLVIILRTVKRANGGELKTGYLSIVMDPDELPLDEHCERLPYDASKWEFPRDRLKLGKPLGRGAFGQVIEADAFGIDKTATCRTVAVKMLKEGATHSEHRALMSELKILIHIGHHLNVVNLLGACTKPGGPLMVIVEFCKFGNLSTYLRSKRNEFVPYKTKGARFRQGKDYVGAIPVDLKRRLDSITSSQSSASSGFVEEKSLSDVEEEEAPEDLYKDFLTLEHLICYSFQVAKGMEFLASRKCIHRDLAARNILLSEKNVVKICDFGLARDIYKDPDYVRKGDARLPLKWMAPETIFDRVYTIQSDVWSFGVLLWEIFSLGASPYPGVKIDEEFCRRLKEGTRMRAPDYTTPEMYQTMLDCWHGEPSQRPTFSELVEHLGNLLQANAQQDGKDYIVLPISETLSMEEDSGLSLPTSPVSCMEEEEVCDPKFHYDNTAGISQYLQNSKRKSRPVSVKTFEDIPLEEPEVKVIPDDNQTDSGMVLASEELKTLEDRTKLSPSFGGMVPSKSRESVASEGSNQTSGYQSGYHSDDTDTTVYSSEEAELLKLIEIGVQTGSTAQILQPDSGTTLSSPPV
In words: Kinase inhibition assay (33P transfer), Kdr. The conditions noted are these: Table 3; read-out: KDR-1. An outline of the steps:
as §1

Another assay addresses T6, Itk (Homo sapiens, UniProt Q08881).
T6 construct: Kinases are expressed as either kinase domains or full length constructs; made in house
T6 sequence (Q08881 1-620): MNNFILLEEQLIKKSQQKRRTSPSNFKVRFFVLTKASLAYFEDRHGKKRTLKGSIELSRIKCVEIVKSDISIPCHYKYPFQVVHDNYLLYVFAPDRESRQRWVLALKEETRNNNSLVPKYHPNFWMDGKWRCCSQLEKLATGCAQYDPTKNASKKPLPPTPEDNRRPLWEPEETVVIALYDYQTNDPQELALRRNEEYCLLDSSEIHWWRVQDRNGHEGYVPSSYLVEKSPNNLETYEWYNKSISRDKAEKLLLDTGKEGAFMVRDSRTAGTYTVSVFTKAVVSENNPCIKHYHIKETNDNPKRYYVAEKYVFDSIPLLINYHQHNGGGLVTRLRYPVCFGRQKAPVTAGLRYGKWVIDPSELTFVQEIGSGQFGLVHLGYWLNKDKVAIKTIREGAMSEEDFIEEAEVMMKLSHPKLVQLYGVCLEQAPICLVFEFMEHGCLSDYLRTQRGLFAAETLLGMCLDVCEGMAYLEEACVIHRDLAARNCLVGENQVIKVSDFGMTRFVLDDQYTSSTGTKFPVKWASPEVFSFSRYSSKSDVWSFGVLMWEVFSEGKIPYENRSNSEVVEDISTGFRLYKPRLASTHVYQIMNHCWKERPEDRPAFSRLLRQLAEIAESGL
As to the kind of experiment: Kinase inhibition assay (33P transfer), Itk. The conditions noted are these: Table 3; read-out: Itk-1. The essentials:
as §2

In the next assay the target is T7, Fyn (Homo sapiens, UniProt P06241).
T7 construct: Kinases are expressed as either kinase domains or full length constructs; made in house
T7 sequence (P06241 whole entry, species assumed, the tested form may be a part): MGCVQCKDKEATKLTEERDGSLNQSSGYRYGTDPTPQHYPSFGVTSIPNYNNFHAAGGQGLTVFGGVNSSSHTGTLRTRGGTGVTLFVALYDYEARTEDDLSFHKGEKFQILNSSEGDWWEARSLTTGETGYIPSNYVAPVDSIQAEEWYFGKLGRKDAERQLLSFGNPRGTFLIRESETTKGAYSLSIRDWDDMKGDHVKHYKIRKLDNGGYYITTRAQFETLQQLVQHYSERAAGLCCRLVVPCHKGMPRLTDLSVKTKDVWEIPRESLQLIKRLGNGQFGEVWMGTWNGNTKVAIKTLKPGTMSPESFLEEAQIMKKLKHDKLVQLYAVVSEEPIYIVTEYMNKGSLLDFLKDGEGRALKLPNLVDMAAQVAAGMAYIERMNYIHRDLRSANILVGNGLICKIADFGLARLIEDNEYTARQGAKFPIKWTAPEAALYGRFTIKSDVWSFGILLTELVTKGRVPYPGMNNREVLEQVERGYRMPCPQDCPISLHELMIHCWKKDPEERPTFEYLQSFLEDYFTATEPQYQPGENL
In words: Kinase inhibition assay (33P transfer), Fyn. The conditions noted are these: read-out: Fyn-1. The essentials: as §2

For a further assay, the target named is T8, IGFR-1 (Homo sapiens, UniProt P08069).
T8 construct: Kinases are expressed as either kinase domains or full length constructs; made in house
As to the kind of experiment: Kinase inhibition assay (33P transfer), IGFR-1. The following applies: Table 2, kinase inhibition class.

A further assay has as its target T9, PDGFRB (Homo sapiens, UniProt P09619).
T9 construct: Kinases are expressed as either kinase domains or full length constructs; made in house
In words: Kinase inhibition assay (33P transfer), PDGFRB. The conditions noted are these: read-out: PDGFRB-1.

In the next assay the target is T10, c-Met (Homo sapiens, UniProt P08581).
T10 construct: Kinases are expressed as either kinase domains or full length constructs; made in house
As to the kind of experiment: Kinase inhibition assay (33P transfer), c-Met. The conditions noted are these: Table 2, kinase inhibition class; read-out: Met-1. The essentials:
as §2

T9 sequence (P09619 33-1106, species assumed): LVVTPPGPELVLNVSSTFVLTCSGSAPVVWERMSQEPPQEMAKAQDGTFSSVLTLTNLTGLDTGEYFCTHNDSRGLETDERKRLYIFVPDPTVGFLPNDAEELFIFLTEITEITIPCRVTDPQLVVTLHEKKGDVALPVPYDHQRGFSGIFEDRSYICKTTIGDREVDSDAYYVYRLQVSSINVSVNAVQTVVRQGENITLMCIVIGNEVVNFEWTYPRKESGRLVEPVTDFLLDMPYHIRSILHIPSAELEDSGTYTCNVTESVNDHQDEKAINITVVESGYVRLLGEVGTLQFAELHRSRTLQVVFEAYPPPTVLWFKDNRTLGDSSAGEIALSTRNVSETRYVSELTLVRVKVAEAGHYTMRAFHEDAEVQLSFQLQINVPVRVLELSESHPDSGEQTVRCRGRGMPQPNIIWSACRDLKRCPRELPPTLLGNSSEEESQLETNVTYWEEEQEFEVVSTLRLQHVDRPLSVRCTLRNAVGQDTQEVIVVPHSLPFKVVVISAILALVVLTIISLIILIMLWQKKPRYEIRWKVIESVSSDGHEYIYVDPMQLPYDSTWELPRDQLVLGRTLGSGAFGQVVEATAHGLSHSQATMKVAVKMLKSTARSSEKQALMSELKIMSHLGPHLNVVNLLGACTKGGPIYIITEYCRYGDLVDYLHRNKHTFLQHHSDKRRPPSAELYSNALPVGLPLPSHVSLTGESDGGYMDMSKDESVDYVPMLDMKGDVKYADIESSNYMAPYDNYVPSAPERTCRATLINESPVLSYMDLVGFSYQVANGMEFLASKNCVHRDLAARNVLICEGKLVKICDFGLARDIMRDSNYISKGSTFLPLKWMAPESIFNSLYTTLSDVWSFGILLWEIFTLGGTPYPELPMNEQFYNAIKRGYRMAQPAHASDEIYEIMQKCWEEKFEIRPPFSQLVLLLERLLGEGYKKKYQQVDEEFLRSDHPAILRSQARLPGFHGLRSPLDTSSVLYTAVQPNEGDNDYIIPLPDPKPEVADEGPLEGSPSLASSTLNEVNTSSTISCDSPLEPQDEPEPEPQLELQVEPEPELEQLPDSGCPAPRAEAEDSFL
T3 sequence (P11362 22-822, species assumed): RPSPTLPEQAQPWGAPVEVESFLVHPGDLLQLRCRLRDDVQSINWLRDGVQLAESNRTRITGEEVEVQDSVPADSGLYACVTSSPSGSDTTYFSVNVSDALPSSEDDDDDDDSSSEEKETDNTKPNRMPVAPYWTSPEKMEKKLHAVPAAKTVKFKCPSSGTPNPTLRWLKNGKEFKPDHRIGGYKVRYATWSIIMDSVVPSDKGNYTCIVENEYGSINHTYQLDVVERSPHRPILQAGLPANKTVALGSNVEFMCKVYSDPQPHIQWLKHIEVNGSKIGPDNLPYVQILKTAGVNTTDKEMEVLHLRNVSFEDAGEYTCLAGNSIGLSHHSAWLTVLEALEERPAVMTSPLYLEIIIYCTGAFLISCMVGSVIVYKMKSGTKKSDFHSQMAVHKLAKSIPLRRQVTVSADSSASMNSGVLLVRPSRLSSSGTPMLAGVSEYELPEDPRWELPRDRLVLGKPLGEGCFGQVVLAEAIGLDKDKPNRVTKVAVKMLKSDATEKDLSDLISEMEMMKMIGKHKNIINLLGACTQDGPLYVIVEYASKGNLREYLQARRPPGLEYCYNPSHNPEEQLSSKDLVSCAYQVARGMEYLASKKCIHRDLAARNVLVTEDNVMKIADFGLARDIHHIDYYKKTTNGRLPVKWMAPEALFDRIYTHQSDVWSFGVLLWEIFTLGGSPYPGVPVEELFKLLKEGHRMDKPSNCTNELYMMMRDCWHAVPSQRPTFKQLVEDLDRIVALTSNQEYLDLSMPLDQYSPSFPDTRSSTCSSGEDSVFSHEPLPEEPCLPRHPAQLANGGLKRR

Regarding `COc1cc(Nc2ncnc(Nc3ccc(C)cc3F)n2)cc(OC)c1OC` [Compound 937], the IC50 at AKT is more than 11.7 µM; on Flt-1, 9.08 to 11.7 µM; at FGFR1 it was more than 11.7 µM; at ErbB4 it was 6.23 to 9.08 µM; on Kdr, less than 1.04 µM; on Itk it was more than 11.7 µM. The IC50 on Fyn is 1.04 to 6.23 µM; against IGFR-1 it was less than 1.04 µM; on PDGFRB, less than 1.04 µM; on c-Met, 6.23 to 9.08 µM.

Take `COc1ccc(Sc2ncnc(Nc3cc(OC)c(OC)c(OC)c3)n2)cc1` [Compound 175]: the IC50 at AKT is more than 11.2 µM; against Flt-1, 5.99 to 8.74 µM; at FGFR1, more than 11.2 µM; at ErbB4, more than 11.2 µM; at Kdr, less than 0.999 µM; at Itk it was more than 11.2 µM. The IC50 on Fyn is 0.999 to 5.99 µM; at IGFR-1 it was 0.999 to 5.99 µM; at PDGFRB it was less than 0.999 µM; at c-Met, 0.999 to 5.99 µM.

As for `COCCOc1ccc(Nc2ncnc(-n3c(N)nc4ccccc43)n2)cc1OCCOC` [Compound 302], the IC50 on AKT is more than 9.97 µM; on Flt-1 it was more than 9.97 µM; at FGFR1, 0.886 to 5.32 µM; at ErbB4 it was more than 9.97 µM; at Kdr, 0.886 to 5.32 µM; at Itk, more than 9.97 µM. Also, the IC50 was more than 9.97 µM on Fyn, less than 0.886 µM against IGFR-1, more than 9.97 µM on PDGFRB and more than 9.97 µM at c-Met.

Consider `COC(=O)c1sccc1Nc1ncnc(Nc2cc(OC)c(OC)c(OC)c2)n1` [Compound 315], for which the IC50 at AKT is more than 10.8 µM; on Flt-1, more than 10.8 µM; at FGFR1, more than 10.8 µM; at ErbB4, 0.958 to 5.75 µM; at Kdr, less than 0.958 µM; on Itk, more than 10.8 µM. The IC50 on Fyn is more than 10.8 µM; against IGFR-1, more than 10.8 µM; on PDGFRB it was 0.958 to 5.75 µM; on c-Met, 8.38 to 10.8 µM.

As to `COc1cc(Nc2ncnc(N3CCCc4ccccc43)n2)cc(OC)c1OC` [Compound 609], the IC50 on AKT was more than 11.4 µM; on Flt-1, less than 1.02 µM; at FGFR1, less than 1.02 µM; on ErbB4, more than 11.4 µM; on Kdr it was less than 1.02 µM; at Itk it was more than 11.4 µM. Moreover, the IC50 on Fyn is less than 1.02 µM; at IGFR-1, more than 11.4 µM; on PDGFRB, less than 1.02 µM; at c-Met it was 1.02 to 6.1 µM.

Turning to `COc1cc(Nc2ncnc(Nc3cc(-c4ccco4)n[nH]3)n2)cc(OC)c1OC` [Compound 308], the IC50 was 8.55 to 11 µM on AKT; less than 0.977 µM against Flt-1; less than 0.977 µM at FGFR1; 0.977 to 5.86 µM at ErbB4; less than 0.977 µM on Kdr; 0.977 to 5.86 µM at Itk. The IC50 at Fyn, against IGFR-1, at PDGFRB and at c-Met was less than 0.977 µM in each case.

Take `COc1cc(Nc2ncnc(Nc3ccc(Br)cc3F)n2)cc(OC)c1OC` [Compound 41]: the IC50 is more than 9.99 µM at AKT; 0.888 to 5.33 µM against Flt-1; 5.33 to 7.77 µM at FGFR1; more than 9.99 µM at ErbB4; less than 0.888 µM on Kdr; 7.77 to 9.99 µM at Itk. Further, the IC50 at Fyn lay within 0.888 to 5.33 µM; on IGFR-1 it was 0.888 to 5.33 µM; at PDGFRB it was 0.888 to 5.33 µM; on c-Met, 5.33 to 7.77 µM.

With `COc1cc(Nc2ncnc(-n3ccc4cc(Cl)ccc43)n2)cc(OC)c1OC` [Compound 198], the IC50 is more than 10.9 µM on AKT; 0.971 to 5.83 µM against Flt-1; more than 10.9 µM at FGFR1; more than 10.9 µM at ErbB4; 0.971 to 5.83 µM on Kdr; more than 10.9 µM on Itk. Also, the IC50 at Fyn is more than 10.9 µM; on IGFR-1, more than 10.9 µM; on PDGFRB, less than 0.971 µM; at c-Met, more than 10.9 µM.

As for `COc1cc(Nc2ncnc(N3c4ccc(F)cc4CCC3C)n2)cc(OC)c1OC` (stereo not drawn) [Compound 298], the IC50 at AKT was more than 10.6 µM; against Flt-1, less than 0.94 µM; on FGFR1, less than 0.94 µM; at ErbB4, 0.94 to 5.64 µM; on Kdr it was less than 0.94 µM; at Itk, 0.94 to 5.64 µM. The IC50 is 0.94 to 5.64 µM on Fyn, 5.64 to 8.23 µM at IGFR-1, less than 0.94 µM on PDGFRB and less than 0.94 µM at c-Met.

Consider `COc1cc(Nc2ncnc(N3CCCC4CCCCC43)n2)cc(OC)c1OC` (stereo not drawn) [Compound 314], for which the IC50 on AKT is more than 11.3 µM; against Flt-1 it was 1 to 6.01 µM; at FGFR1, 6.01 to 8.76 µM; on ErbB4, 1 to 6.01 µM; on Kdr, less than 1 µM; at Itk, 1 to 6.01 µM. The IC50 at Fyn was 1 to 6.01 µM; on IGFR-1, more than 11.3 µM; on PDGFRB it was 1 to 6.01 µM; at c-Met, 1 to 6.01 µM.

For the compound `COc1cc2ccn(-c3ncnc(Nc4cc(OC)c(OC)c(OC)c4)n3)c2cc1OC` [Compound 239], the IC50 at AKT is more than 10.3 µM; at Flt-1, more than 10.3 µM; at FGFR1, more than 10.3 µM; on ErbB4 it was more than 10.3 µM; on Kdr it was 0.914 to 5.49 µM; at Itk, more than 10.3 µM. Further, the IC50 on Fyn, on IGFR-1, on PDGFRB and at c-Met was more than 10.3 µM throughout.

As for `COc1cc(Nc2ncnc(-n3ccc4ccc(Cl)cc43)n2)cc(OC)c1OC` [Compound 237], the IC50 on AKT is more than 10.9 µM; on Flt-1, 8.5 to 10.9 µM; on FGFR1, 5.83 to 8.5 µM; on ErbB4, more than 10.9 µM; at Kdr it was less than 0.971 µM; at Itk, more than 10.9 µM. Moreover, the IC50 on Fyn was more than 10.9 µM; on IGFR-1 it was less than 0.971 µM; at PDGFRB, more than 10.9 µM; at c-Met, 5.83 to 8.5 µM.

`C#Cc1cccc(Nc2ncnc(Nc3ccc(OC)c(OC)c3)n2)c1` [Compound 116]: the IC50 at AKT is more than 13 µM; at Flt-1 it was more than 13 µM; on FGFR1, more than 13 µM; on ErbB4, more than 13 µM; on Kdr it was 6.91 to 10.1 µM; at Itk it was more than 13 µM. Besides, the IC50 on Fyn was more than 13 µM; against IGFR-1 it was 1.15 to 6.91 µM; on PDGFRB, more than 13 µM; on c-Met it was more than 13 µM.

As for `COCCOc1ccc(Nc2ncnc(Nc3ccc(C)c(O)c3)n2)cc1OCCOC` [Compound 125], the IC50 was more than 10.2 µM on AKT; less than 0.906 µM against Flt-1; 0.906 to 5.44 µM at FGFR1; 7.93 to 10.2 µM on ErbB4; less than 0.906 µM at Kdr; 5.44 to 7.93 µM on Itk. The IC50 at Fyn is 0.906 to 5.44 µM; against IGFR-1, 0.906 to 5.44 µM; on PDGFRB, less than 0.906 µM; at c-Met, more than 10.2 µM.

As to `COCCOc1ccc(Nc2ncnc(Nc3ccc(C)c(O)c3)n2)cc1OC` [Compound 123], the IC50 was more than 11.3 µM at AKT; less than 1.01 µM against Flt-1; 1.01 to 6.04 µM at FGFR1; 1.01 to 6.04 µM on ErbB4; less than 1.01 µM at Kdr; 6.04 to 8.81 µM at Itk. Besides, the IC50 on Fyn is 1.01 to 6.04 µM; against IGFR-1 it was 1.01 to 6.04 µM; at PDGFRB, less than 1.01 µM; at c-Met, more than 11.3 µM.

Source of the values: patent US7074789B2, “Kinase inhibitors” (Amgen Inc., priority 1999, dated 2006).
